From patent publication US20120282377A1, “Methods and Formulations for Inhibiting Degradation of Photosensitive Sweeteners and Sweetener Enhancers” (priority 2011, published 2012)
Where “and” joins values, the source holds several entries; their conditions need not be identical. Equal values may be shown once.

How the values were obtained:
Type in all cases: physicochemical
[1] = Odor analysis of UV and light exposed monatin samples by 6 panelists; set-up: key to Odor analysis: (+) = no odor or minor odor; (−) = distinct or unpleasant odor; details: for Odor analysis: 30 PPM in lemon lime matrix pH 3.35, panelists 1-6
Procedure: A survey of odor and visual analysis of the UV and light exposed samples of the monatin samples was conducted by 6 panelists. Samples for analysis were solution of monatin in a lemon lime matrix without flavor at pH 3.35 (30 PPM monatin) exposed to visible for three days or UV light for 24 hours (equivalent of four days sun exposure).

[2] = Monatin stability in lemon-lime beverage with or without EMIQ, UV irradiation (Example 4)
Procedure: (§1) The polyphenol enzymatically-modified isoquercitrin (EMIQ) was used to stabilize monatin (31 mg/L) in a lemon lime carbonated beverage formulation contained in either a regular (clear, colorless) PET bottle or a dark-colored PET bottle. The level of EMIQ in the samples was 7.5 PPM. A control formulation was used that contained no EMIQ. The samples were exposed to UV light or ambient indoor laboratory fluorescent lighting for up to 72 hours. UV light was administered in a UV chamber at 40° C. with approximately 400 Langley per 6 hours of exposure. The results listed below indicate that the monatin was very unstable in the control formulations with only 1.4% monatin remaining after 24 hours exposure to UV light. EMIQ provided protection from degradation of the monatin. When packaged in a dark-colored PET bottle approximately 89% monatin remained in the formulation after exposure to UV light for 24 hours. When exposed to ambient indoor laboratory lighting for 72 hours over 90% monatin remained in both clear and dark PET bottles containing the EMIQ polyphenol. All analyses were done by HPLC/MS.

[3] = Monatin stability in lemon-lime beverage with EMIQ, visible light (Example 4); details: for % Monatin remaining / Conc. of Monatin: with EMIQ
Procedure: as §1

[4] = dark-colored PET, with EMIQ 7.5 PPM, UV exp. 0 hours
[5] = dark-colored PET, with EMIQ 7.5 PPM, UV exp. 6 hours
[6] = dark-colored PET, with EMIQ 7.5 PPM, UV exp. 12 hours
[7] = dark-colored PET, with EMIQ 7.5 PPM, UV exp. 18 hours
[8] = dark-colored PET, with EMIQ 7.5 PPM, UV exp. 24 hours
[9] = regular PET, no EMIQ, UV exp. 0 hours
[10] = regular PET, no EMIQ, UV exp. 6 hours
[11] = regular PET, no EMIQ, UV exp. 12 hours
[12] = regular PET, no EMIQ, UV exp. 18 hours
[13] = regular PET, no EMIQ, UV exp. 24 hours
[14] = regular PET, with EMIQ 7.5 PPM, UV exp. 0 hours
[15] = regular PET, with EMIQ 7.5 PPM, UV exp. 6 hours
[16] = regular PET, with EMIQ 7.5 PPM, UV exp. 12 hours
[17] = regular PET, with EMIQ 7.5 PPM, UV exp. 18 hours
[18] = regular PET, with EMIQ 7.5 PPM, UV exp. 24 hours
[19] = dark-colored PET, Vis. exp. 0 hours
[20] = dark-colored PET, Vis. exp. 5 hours
[21] = dark-colored PET, Vis. exp. 7 hours
[22] = dark-colored PET, Vis. exp. 23 hours
[23] = dark-colored PET, Vis. exp. 28 hours
[24] = dark-colored PET, Vis. exp. 48 hours
[25] = regular PET, Vis. exp. 23 hours
[26] = regular PET, Vis. exp. 28 hours
[27] = regular PET, Vis. exp. 48 hours

## NC(CC(O)(Cc1c[nH]c2ccccc12)C(=O)O)C(=O)O (stereo not drawn) [Monatin, 2-amino-4-carboxy-4-hydroxy-5-(3-indolyl)-pentanoic acid]
[1]; Dark-colored PET bottle, UV light 24 hours
  Odor analysis: − and +
[1]; Dark-colored PET bottle, visible light three days
  Odor analysis: − and +
[1]; PET with UV barrier, UV light 24 hours
  Odor analysis: − and +
[1]; PET with UV barrier, visible light three days
  Odor analysis: +
[1]; Regular PET, UV light 24 hours
  Odor analysis: − and +
[1]; Regular PET, visible light three days
  Odor analysis: +
[1]; samples in the dark-colored PET bottles
  odor change after UV exposure: no or minimal odor change
[2]; [4]
  % Monatin remaining: 100%
  Conc. of Monatin: 30930 ng/mL
[2]; [5]
  % Monatin remaining: 92.4% and 92.3%
  Conc. of Monatin: 28590 ng/mL and 28530 ng/mL
[2]; [6]
  % Monatin remaining: 90.7% and 90.9%
  Conc. of Monatin: 28050 ng/mL and 28100 ng/mL
[2]; [7]
  % Monatin remaining: 90.7% and 90.5%
  Conc. of Monatin: 28040 ng/mL and 28000 ng/mL
[2]; [8]
  % Monatin remaining: 89.0% and 89.3%
  Conc. of Monatin: 27510 ng/mL and 27620 ng/mL
[2]; dark-colored PET, with EMIQ 7.5 PPM, UV exp. 24 hours, listed as monatin
  % Monatin remaining: approximately 89%
[2]; [9]
  % Monatin remaining: 100%
  Conc. of Monatin: 30760 ng/mL and 30790 ng/mL
[2]; [10]
  % Monatin remaining: 68.6%
  Conc. of Monatin: 21130 ng/mL and 21110 ng/mL
[2]; [11]
  % Monatin remaining: 9.4% and 9.3%
  Conc. of Monatin: 2890 ng/mL and 2870 ng/mL
[2]; [12]
  % Monatin remaining: 1.7% and 1.6%
  Conc. of Monatin: 540 ng/mL and 510 ng/mL
[2]; [13]
  % Monatin remaining: 1.4%
  Conc. of Monatin: 430 ng/mL and 440 ng/mL
[2]; [14]
  % Monatin remaining: 100%
  Conc. of Monatin: 30930 ng/mL
[2]; [15]
  % Monatin remaining: 83.1% and 82.9%
  Conc. of Monatin: 25710 ng/mL and 25620 ng/mL
[2]; [16]
  % Monatin remaining: 69.3%
  Conc. of Monatin: 21420 ng/mL and 21440 ng/mL
[2]; [17]
  % Monatin remaining: 52.0% and 51.7%
  Conc. of Monatin: 16070 ng/mL and 15990 ng/mL
[2]; [18]
  % Monatin remaining: 34.9% and 34.8%
  Conc. of Monatin: 10800 ng/mL and 10760 ng/mL
[3]; ambient indoor laboratory lighting for 72 hours, both clear and dark PET bottles containing the EMIQ polyphenol
  monatin remained: over 90%
[3]; [19]
  % Monatin remaining: 100%
  Conc. of Monatin: 30930 ng/mL
[3]; [20]
  % Monatin remaining: 97.5%
  Conc. of Monatin: 30160 ng/mL
[3]; [21]
  % Monatin remaining: 96.4% and 96.2%
  Conc. of Monatin: 29810 ng/mL and 29760 ng/mL
[3]; [22]
  % Monatin remaining: 93.3% and 93.1%
  Conc. of Monatin: 28870 ng/mL and 28790 ng/mL
[3]; [23]
  % Monatin remaining: 94.5%
  Conc. of Monatin: 29220 ng/mL
[3]; [24]
  % Monatin remaining: 92.1% and 92.4%
  Conc. of Monatin: 28490 ng/mL and 28590 ng/mL
[3]; regular PET, Vis. exp. 0 hours
  % Monatin remaining: 100%
  Conc. of Monatin: 30930 ng/mL
[3]; regular PET, Vis. exp. 5 hours
  % Monatin remaining: 99.0% and 98.6%
  Conc. of Monatin: 30620 ng/mL and 30510 ng/mL
[3]; regular PET, Vis. exp. 7 hours
  % Monatin remaining: 97.2% and 97.4%
  Conc. of Monatin: 30060 ng/mL and 30120 ng/mL
[3]; [25]
  % Monatin remaining: 94.1%
  Conc. of Monatin: 29100 ng/mL
[3]; [26]
  % Monatin remaining: 94.7% and 94.8%
  Conc. of Monatin: 29270 ng/mL and 29320 ng/mL
[3]; [27]
  % Monatin remaining: 92.7% and 92.5%
  Conc. of Monatin: 28680 ng/mL and 28610 ng/mL
